Assay results reported in a melting point compilation (Tetko et al.; mined from patent text by program, amines drawn as free bases though some values may be those of a salt).

Structure (SMILES)	melting point [°C]
COc1c(F)ccc2c1C(C)(C)CC(O)(C(F)(F)F)C2Nc1cccc2c(=O)n(C)ncc12 (stereo not given)	262 to 263
O=C(Nc1ccc2ccc(Cl)nc2n1)c1ccc(Br)o1	285
CC(CS(=O)(=O)C(C)c1ccccc1)C(=O)O (stereo not given)	91 to 93
COc1ccc(/C(=C/C=C/C(=O)Oc2ccc([N+](=O)[O-])cc2)C2CCCCC2)cc1	117 to 119
CC(Br)C(=C(C#N)C#N)c1ccccc1 (stereo not given)	103 to 104
CCCOc1cc(C(=O)CCC(=O)O)ccc1OCC	116 to 117
CCOC(=O)C1=C(N)NC2=C(C(=O)CCC2)C1c1ccccc1Br (stereo not given)	245
CCCCCCOc1ccc(Nc2ncc(F)c(Nc3ccc4c(c3)OCCO4)n2)cc1	115 to 117
COP1(=O)CC(O)C(Cl)C1 (stereo not given)	82
O=C(NCc1ccco1)c1cc2ccnc(Cl)c2[nH]1	205 to 209
OC1CSC(Oc2cncc(-c3ccc(F)c(F)c3)c2)C(O)C1O (stereo not given)	198 to 203
CCCn1cc(CO)c(=O)c2ccccc21	88 to 91
CCCc1cc(=O)n(-c2cc(C(=O)OC(C)C)c(Cl)cc2F)c(=O)[nH]1	192 to 193
Cc1ccccc1C(=O)NCN1CCN(c2ccccc2C#N)CC1	62 to 64
CS(=O)(=O)c1ccc(-c2nc(C(F)(F)F)nc(OS(=O)(=O)c3cccc4ccccc34)c2-c2ccccc2)cc1	204 to 206
Cc1cc([N+](=O)[O-])cc(C)c1Cl	101 to 105
CCOC(=O)C(=CNc1ccc(F)c(F)c1OCc1ccccc1)C(=O)OCC	87
O=Cc1cnc(Oc2ccccc2)s1	50
O=C(c1ccc(OS(=O)(=O)C(F)(F)F)cc1OS(=O)(=O)C(F)(F)F)c1ccc(OS(=O)(=O)C(F)(F)F)cc1OS(=O)(=O)C(F)(F)F	94 to 96
Nc1ccccc1CCN1CCN(c2nsc3ccccc23)CC1	149

Structure (SMILES)	melting point [°C]
Cc1nc(N)c(Br)c(NNCc2cncc(Br)c2)n1	221 to 222
CC(C(=O)O)c1ccc(-c2ccc(F)cc2)c(Br)c1 (stereo not given)	129 to 131
CCCNc1nc(=O)n(C2CC(N=[N+]=[N-])C(COC(C)=O)O2)cc1C (stereo not given)	138 to 140
CC(=O)N(CC=C=CC=c1c(C)c2c(n(-c3ccccc3)c1=O)=NN(c1ccccc1)C2=O)c1ccccc1	> 300
C[Si]1(C)CC[Si](C)(C)N1c1ccc(Br)cn1	50.4 to 55.8
Clc1cc(Cl)cc(NCNc2cc(Cl)cc(Cl)c2)c1	153 to 156
c1ccc(-c2cn3c(n2)Cc2ccccc2C3)cc1	195 to 197
Oc1ccc(CNc2ncncc2Cl)cc1	190 to 191
COc1cc(OCCCN(C)Cc2ccc(OC)c(OC)c2)ccc1NC(=O)c1cccc2c(=O)c3cccc(C)c3[nH]c12	156 to 157
ON=C(Cc1cnccn1)c1ccc(Cl)cc1	134
COc1cc(OC)c2c(=O)[nH]c(-c3ccc(OCCNC(C)C)c(-c4cccc(S(C)(=O)=O)c4)n3)nc2c1	222 to 223
CC(O)Cn1cnc2c(=O)[nH]cnc21 (stereo not given)	244 to 250
Cn1cc(-c2ccccc2)c(=O)c(-c2cc(Br)ccc2F)c1	148 to 150
O=C(Oc1ccc(Br)cc1)c1ccccc1	98 to 100
CN1C(=O)CC[C@]2(C)c3ccc(-c4cccc(C(F)(F)F)c4)cc3CC[C@@H]12	64 to 87
CCC(=O)N1N=C(c2ccc([N+](=O)[O-])cc2)c2cc(Br)ccc2CC1C (stereo not given)	178 to 180
COC(=O)c1ccccc1S(=O)(=O)NC(=O)Nc1n[nH]c(SC)n1	147 to 153
CC(=O)Nc1cc([N+](=O)[O-])ccc1OCCCN(C)C	69
O=c1c(CO)c(-c2ccc(O)cc2)oc2ccccc12	234 to 235
COC(=O)CCCCCCCCCCCCCCCCCCCCC(=O)c1c(C)cc(OC)c(OC)c1O	72 to 72.5
